In patent US8603482B2, “Compositions and methods for cancer immunotherapy” (Eisai R&D Management Co., Ltd., priority 2005, dated 2013):
“And” between values parts separate entries of the source, which are not always exact repeats. Equal values may be shown once.

Assays:
[1] = tested on: B16F10 murine melanoma cells; assay: Survival of B16F10 melanoma-bearing mice, i.p. E6020 with s.c. GM-CSF-secreting tumor cell vaccine; assay type: in vivo, B6 mice (C57BL/6 mice); conditions: i.p. E6020 plus s.c. irradiated B16-GM-CSF cells at separate sites, three days after s.c. B16F10 inoculation; FIG. 1
Excerpt: To determine the effect of E6020, a sodium salt of ER 804057, when administered intraperitoneally with a cancer vaccine, e.g., granulocyte-macrophage colony stimulating factor (GM-CSF) secreting tumor cells, a mouse model using melanoma cells was used.
E6020 is a TLR4 (Toll-like receptor-4) agonist. B6 mice (C57BL/6 mice) were engrafted subcutaneously with 1×10^6 syngeneic B16F10 murine melanoma cells. Three days after tumor cell inoculation, the mice were either (1) vaccinated subcutaneously (s.c.) with 1×10^6 B16F10 tumor cells that were genetically modified to stably express and secrete murine GM-CSF (B16-GM-CSF cells); (2) vaccinated intraperitoneally (i.p.) with E6020; or (3) were treated with a combination of s.c. GM-CSF cell vaccination and i.p. E6020 (the GM-CSF cell vaccination and E6020 vaccination were administered at separate sites in the mice). In these experiments, the GM-CSF cells were inactivated by gamma-irradiation prior to inoculation. Survival of the animals was monitored.

[2] = tested on: B16F10 murine melanoma cells; assay: Survival of B16F10 melanoma-bearing mice, intratumoral GM-CSF cells with E6020; assay type: in vivo, B6 mice; conditions: intratumoral GM-CSF cells in combination with E6020 (about 3-10 μg) when tumors palpable; versus untreated or GM-CSF cells alone; FIG. 2
Method: The effect of E6020 on treatment of B6 mice that were engrafted subcutaneously with 1×10^6 syngeneic B16F10 murine melanoma cells was examined. When tumors became palpable, the mice were injected intratumorally with GM-CSF cells alone, or in combination with E6020 (about 3-10 μg). Survival of the animals was monitored.

MUC1 IL-10−/− mice = assay: MUC-1 vaccine with E6020 adjuvant in mice that develop IBD followed by colon adenocarcinoma; assay type: in vivo, mouse
Method: To test the effects of a MUC-1 vaccine with E6020 adjuvant for treating inflammatory bowel disease (IBD) and subsequent development of colon adenocarcinoma, an engineered mouse strain that lacks the IL-10 gene and expresses transgenic human MUC1 was used. Such mice spontaneously develop intestinal inflammation resembling IBD followed by colon adenocarcinoma. […] 4, 2006.
In these experiments, mice were immunized intranasally with […] of Tn MUC100mer ([…])×5, SEQ ID NO:1) and […] of E6020. Animals were vaccinated at about 4.5 weeks and boosted at about 6.5 weeks and 9 weeks.

EGFRvIII peptide = assay: EGFRvIII peptide-specific antibody titers by ELISA after immunization with peptide-KLH conjugate; assay type: in vivo, C57/BL6J mice; conditions: for Geometric mean titer: IgG1 / Geometric mean titer: IgG2a: antigen administered with the named adjuvant, 8 animals; for IgG1 antibody titer to EGFRvIII peptide, individual animals / IgG2a antibody titer to EGFRvIII peptide, individual animals: s.c. peptide-KLH conjugate 25 μg with E6020 3 μg and/or GM-CSF 5 μg, three immunizations at three-week intervals, titer = last serum dilution with signal 0.25 OD units above background
Method: To determine whether an adjuvant can enhance the effect of an oncology antigen (i.e., an antigen that can be used to vaccinate an animal against a cancer), C57/BL6J mice were immunized subcutaneously with a tumor-associated peptide, LEEKKGNYVVTDHC (SEQ ID NO: 2) (derived from a mutant form of EGFR, EGFRvIII) conjugated to the protein carrier keyhole limpet hemocyanin (KLH), with or without E6020 or murine GM-CSF, a cytokine used in cancer vaccine trials to boost immune response. E6020 was dosed at 3 μg, GM-CSF at 5 μg and the peptide-KLH conjugate at 25 μg per dose. Mice were immunized three times at intervals of three weeks. Serum was prepared from mice two weeks after each immunization and tested for EGFRvIII peptide-specific antibodies using ELISA on plates coated with EGFRvIII peptide conjugated to bovine serum albumin. The results in Table 2 are presented as titers from individual animals. The titer is defined as the last serum dilution at which a signal at 0.25 OD units above background was observed.

[3] = addition of E6020 to the MUC-1 vaccine

| Molecule | therapeutic efficacy (survival of tumor-bearing mice) [1] | survival of tumor-bearing mice [2] | appearance of histologically detected tumors (MUC1 IL-10−/− mice; [3]) | progression to rectal prolapse associated with IBD (MUC1 IL-10−/− mice; [3]) | Colon tumors (MUC1 IL-10−/− mice; mice with colon tumors / mice treated, MUC1 IL-10−/− mice) | Geometric mean titer: IgG1 (EGFRvIII peptide) | Geometric mean titer: IgG2a (EGFRvIII peptide) | IgG1 antibody titer to EGFRvIII peptide, individual animals (EGFRvIII peptide) | IgG2a antibody titer to EGFRvIII peptide, individual animals (EGFRvIII peptide) | effect on antigen-specific IgG2a titers (in words) (EGFRvIII peptide; vaccination with EGFRvIII peptide-KLH) |
| --- | --- | --- | --- | --- | --- | --- | --- | --- | --- | --- |
| CCCCCCCCCCCC(=O)CC(=O)N[C@H](COCC[C@@H](CCCCCCC)OC(=O)CCCCCCCCCCC)COP(=O)(O)OCCNC(=O)NCCOP(=O)(O)OC[C@@H](COCC[C@@H](CCCCCCC)OC(=O)CCCCCCCCCCC)NC(=O)CC(=O)CCCCCCCCCCC [E6020] | enhanced the therapeutic efficacy of the GM-CSF cells | increased survival | suppresses the appearance of histologically detected tumors | slow the progression to rectal prolapse associated with IBD | 3/3 | 20182 | 10091 | 24000 (6×) and 48000 and 3000 | 12000 (3×) and 24000 and 48000 and 1500 and 6000 (2×) | enhanced the mean titer of antigen-specific IgG2a |
| GM-CSF: murine GM-CSF, a cytokine used in cancer vaccine trials to boost immune response (protein, UniProt P01587 18-141, looked up) Granulocyte-macrophage …: APTRSPITVTRPWKHVEAIKEALNLLDDMPVTLNEEVEVVSNEFSFKKLTCVQTRLKIFEQGLRGNFTKLKGALNMTASYYQTYCPPTPETDCETQVTTYADFIDSLKTFLTDIPFECKKPGQK |  |  |  |  |  | 24000 | 3568 | 24000 (2×) and 48000 (3×) and 12000 (3×) | 3000 (2×) and 6000 (3×) and 24000 and 750 (2×) |  |
